Data: patent US20090036416A1, “Novel CXCR4 Antagonist and Use Thereof” (Kyoto University, priority 2005, published 2009)

Tests used:
CXCR4 [1] = target: T1, CXCR4 (Homo sapiens, UniProt P61073); experiment: CXCR4 antagonistic activity: inhibition of Ca2+ movement induced by SDF-1a in CXCR4 transfected CHO cells (Fura-2); type: cell-based; conditions: for CXCR4 antagonistic activity (in words): comment in the text on Tables 1 to 3
Description: Various aromatic compounds each having a dipicolylamine-zinc complex were prepared, and their CXCR4 antagonistic effects were examined using the following method.
A CXCR4 transfected Chinese hamster ovary(CHO) cells (3×10^4 cell/100 μL/well) were plated in each well of a flat-bottomed micro-titer tray. The samples were incubated in a CO2 incubator at 37° C., and the cells were loaded in Ham F-12 buffer(80 μL/well) for an hour at 37° C., together with 5 μM Fura-2AM (Dojindo, Kumatomo, Japan), 2.5 mM Probenecid (Sigma) and 20 mM HEPES(pH7.4).
Thereafter, the cells were washed twice with Hank's balanced salt solution (100 μL×2), and placed in a spectrofluorimeter (96 well Fluorescence Drug Screening System, Hamamatsu Photonics K.K. Japan). 30 seconds after the measurement started, the cells were incubated in Hank's balanced salt solution with plural test compounds of different concentrations. After 3 minutes, recombinant SDF-1a (PreproTech, 30 nM/[…]/well) was added.
Changes of the CXCR4 transfect CHO cell system loaded with Fura2-A[Ca^2+], were recorded in real time with a modification method of Fura-2. The CXCR4 antagonistic effect was measured based on the inhibition of Ca^2+ movement induced by the stimulation of SDF-1a via CXCR4 (IC50).

CXCR4 [2] = target: T1, CXCR4; experiment: CXCR4 binding activity: inhibition of 125I-SDF-1a bonding to CXCR4 transfected CHO cells
HIV-1IIIB = conditions: read-out: EC50 (anti-HIV-1 activity); HIV-1IIIB infected MT-4 cells, virus number/cells number=0.01, five days, MTT viable cell count

T1 sequence (P61073 whole entry): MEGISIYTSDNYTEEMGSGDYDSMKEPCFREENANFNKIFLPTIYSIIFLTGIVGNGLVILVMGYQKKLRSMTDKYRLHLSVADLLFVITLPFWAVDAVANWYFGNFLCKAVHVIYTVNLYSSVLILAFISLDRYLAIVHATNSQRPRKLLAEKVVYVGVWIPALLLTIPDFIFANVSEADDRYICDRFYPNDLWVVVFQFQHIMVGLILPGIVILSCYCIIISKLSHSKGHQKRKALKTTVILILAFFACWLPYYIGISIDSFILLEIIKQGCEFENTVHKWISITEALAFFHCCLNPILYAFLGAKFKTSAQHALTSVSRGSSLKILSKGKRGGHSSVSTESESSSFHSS

Row | IC50 (CXCR4 [1]) | Compound | also measured
1 | 240 nM | C[C@H](NC(=O)[C@H](CCCNC(=N)N)NC(=O)c1ccc(CNCc2ccccn2)cc1)c1cccc2ccccc12 [Reference Example Compound III, reference compound] | IC50 (CXCR4 [2]): 34 nM
2 | 460 nM | c1ccc(CN(Cc2ccnc(-c3cc(CN(Cc4ccccn4)Cc4ccccn4)ccn3)c2)Cc2ccccn2)nc1 [Example Compound 5] | 
3 | 350 nM | c1ccc(CN(Cc2cccc(-c3cccc(CN(Cc4ccccn4)Cc4ccccn4)c3)c2)Cc2ccccn2)nc1 [Example Compound 3] | 
4 | 770 nM | c1ccc(CN(Cc2ccccn2)Cc2c3ccccc3cc3ccccc23)nc1 [Example Compound 8] | 

The remaining lines, values behind:

Row | Compound | IC50 (CXCR4 [1]) | also measured
5 | 9,10-bis[(2,2′-dipicolylamino) methyl]anthracene/Zn complex [Example Compound 9] |  | CXCR4 antagonistic activity (in words) (CXCR4 [1]): high activity; IC50 (CXCR4 [1]; inhibition of Ca2+ movement induced by SDF-1a (30 nM) via CXCR4, CXCR4 transfected CHO cells): 240 nM
6 | c1ccc(CN(Cc2ccc(-c3ccc(CN(Cc4ccccn4)Cc4ccccn4)cc3)cc2)Cc2ccccn2)nc1 [Comparative Example Compound B, reference compound] | > 10000 nM | 
7 | c1ccc(CN(Cc2ccc(CN(Cc3ccccn3)Cc3ccccn3)cc2)Cc2ccccn2)nc1 [Comparative Example Compound A, reference compound] | > 10000 nM | 
8 | bis(2,2′-dipicolylamino)-p-xylene/zinc complex [Example Compound 1] |  | CXCR4 antagonistic activity (in words) (CXCR4 [1]): strong CXCR4 antagonistic activity; EC50 (HIV-1IIIB): 7100 nM; CXCR4 bonding activity (in words) (CXCR4 [2]; comment in the text on Table 4): comparative to that of Reference Example Compound III (KRH-1636)
